Assay results taken from publication PMC2800054 (Journal of medicinal chemistry, 2008).
Converted amounts (≈) assume the structure as drawn.

What was measured:
[1] = test system: protein synthesis; details: read-out: IC50 (inhibition of protein synthesis); in vitro protein translation assay
[2] = cited from earlier work
[3] = cited from earlier work; remark: listed apart in the source
[4] = target: T1, MbtA (Mycobacterium tuberculosis, UniProt P71716); details: cited from earlier work; for ΔG^0 (free energy of binding): acyladenylate fragments
[5] = target: T1, MbtA; type: biochemical; details: for fold loss of potency (KI^app) relative to 6 / fold increase in potency / binding affinity (KI^app) relative to 6: relative to parent compound 6
[6] = test system: M. tuberculosis H37Rv; assay: M. tuberculosis H37Rv MIC assay; type: cell-based, Mycobacterium tuberculosis; details: ratio of selectivity factors
[7] = target: T1, MbtA; type: binding; details: ITC
[8] = target: cysteine adenylation domain in the multifunctional NRPS module known as HMWP2; details: read-out: Ki^app; cited from earlier work
[9] = test system: M. tuberculosis H37Rv; details: under the assay conditions; positive control; cited from earlier work
[10] = saturating salicylic acid, 298 K

T1 sequence (P71716 whole entry, the tested form may be a part): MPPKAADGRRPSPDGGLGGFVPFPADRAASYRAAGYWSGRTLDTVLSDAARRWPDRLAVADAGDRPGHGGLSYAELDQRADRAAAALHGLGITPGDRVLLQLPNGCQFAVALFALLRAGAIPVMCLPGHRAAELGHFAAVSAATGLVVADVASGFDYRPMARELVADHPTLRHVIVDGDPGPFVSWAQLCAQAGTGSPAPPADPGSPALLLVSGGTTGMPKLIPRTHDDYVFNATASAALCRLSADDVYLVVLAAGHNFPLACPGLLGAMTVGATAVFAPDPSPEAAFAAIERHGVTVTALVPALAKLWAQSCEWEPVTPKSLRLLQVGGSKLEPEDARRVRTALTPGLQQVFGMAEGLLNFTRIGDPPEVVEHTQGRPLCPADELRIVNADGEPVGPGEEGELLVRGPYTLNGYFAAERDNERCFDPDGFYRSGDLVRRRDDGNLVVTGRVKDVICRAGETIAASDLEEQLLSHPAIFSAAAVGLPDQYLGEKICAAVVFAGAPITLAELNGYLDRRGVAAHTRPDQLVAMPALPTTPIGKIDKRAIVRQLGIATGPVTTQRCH

In the case of “5′-O-[N-(salicyl)sulfamoyl]adenosine [Compound 6]”, the IC50 [1] is listed as > 100000 nM, the “stability in human plasma” value [2] is listed as “stable” and the “stability in human liver microsomes” value [3] is listed as “stable”.
For Nc1ncnc2c1ncn2[C@@H]1O[C@H](COP(=O)(O)O)[C@@H](O)[C@H]1O [AMP, adenosine monophosphate], the “ΔG^0 (free energy of binding)” value [4] is given as -5.0 kcal/mol.
For CCN(CC)CC.Nc1ncnc2c1ccn2[C@@H]1O[C@H](COS(=O)(=O)NC(=O)c2ccccc2O)[C@@H](O)[C@H]1O [Compound 7, 7-Deaza-5′-O-[N-(2-hydroxybenzoyl)sulfamoyl]adenosine Triethylammonium Salt], the “fold loss of potency (KI^app) relative to 6” value [5] was 4 fold.
With CCN(CC)CC.O=C(NS(=O)(=O)OC[C@H]1O[C@@H](n2cnc3c(=O)[nH]cnc32)[C@H](O)[C@@H]1O)c1ccccc1O [Compound 9, 5′-O-[N-(2-Hydroxybenzoyl)sulfamoyl]inosine Triethylammonium Salt] the “fold loss of potency (KI^app) relative to 6” value [5] was 121 fold.
In the case of CCN(CC)CC.CN(C)c1ncnc2c1ncn2[C@@H]1O[C@H](COS(=O)(=O)NC(=O)c2ccccc2O)[C@@H](O)[C@H]1O [Compound 10, 5′-O-[N-(2-Hydroxybenzoyl)sulfamoyl]-N^6,N^6′-dimethyladenosine Triethylammonium Salt], the “fold activity difference between N-6-dimethyl 10 and N-6-methyl 11” value ([5]; 10 versus 11) is reported as ~ 238 fold and the “fold loss of potency (KI^app) relative to 6” value [5] is reported as 58 fold.
With CC(C)CNc1ncnc2c1ncn2[C@@H]1O[C@H](COS(=O)(=O)[N-]C(=O)c2ccccc2O)[C@@H](O)[C@H]1O.[Na+] [Compound 15, 5′-O-[N-(2-Hydroxybenzoyl)sulfamoyl]-N^6-isobutyladenosine Sodium Salt] the “fold loss of potency (KI^app) relative to 6” value [5] was 1140 fold.
In the case of CCN(CC)CC.O=C(NS(=O)(=O)OC[C@H]1O[C@@H](n2cnc3c(NC4CC4)ncnc32)[C@H](O)[C@@H]1O)c1ccccc1O [Compound 16, N^6-Cyclopropyl-5′-O-[N-(2-hydroxybenzoyl)sulfamoyl]adenosine Triethylammonium Salt], the “fold increase in potency / binding affinity (KI^app) relative to 6” value [5] is reported as 3.5 fold and the “enhancement in selectivity S relative to Sal-AMS 6” value [6] is reported as 16 fold.
For O=C([N-]S(=O)(=O)OC[C@H]1O[C@@H](n2cnc3c(NC4CCC4)ncnc32)[C@H](O)[C@@H]1O)c1ccccc1O.[Na+] [Compound 17, N^6-Cyclobutyl-5′-O-[N-(2-hydroxybenzoyl)sulfamoyl]adenosine Sodium Salt], the “fold loss of potency (KI^app) relative to 6” value [5] was 124 fold.
In the case of CCN(CC)CC.Nc1nc(I)nc2c1ncn2[C@@H]1O[C@H](COS(=O)(=O)NC(=O)c2ccccc2O)[C@@H](O)[C@H]1O [Compound 23, 5′-O-[N-(2-Hydroxybenzoyl)sulfamoyl]-2-iodoadenosine Triethylammonium Salt], the “fold increase in potency / binding affinity (KI^app) relative to 6” value [5] is reported as 2 fold.
For CCN(CC)CC.Nc1nc(Nc2ccccc2)nc2c1ncn2[C@@H]1O[C@H](COS(=O)(=O)NC(=O)c2ccccc2O)[C@@H](O)[C@H]1O [Compound 24, 2-Anilino-5′-O-[N-(2-hydroxybenzoyl)sulfamoyl]adenosine Triethylammonium Salt], the “fold increase in potency / binding affinity (KI^app) relative to 6” value [5] was 7 fold.
For CCN(CC)CC.Nc1nc(C#Cc2ccccc2)nc2c1ncn2[C@@H]1O[C@H](COS(=O)(=O)NC(=O)c2ccccc2O)[C@@H](O)[C@H]1O [Compound 25, 5′-O-[N-(2-Hydroxybenzoyl)sulfamoyl]-2-(phenylethynyl)adenosine Triethylammonium Salt], the “fold increase in potency / binding affinity (KI^app) relative to 6” value [5] was 17 fold.
In the case of CCN(CC)CC.Nc1nc(-c2ccccc2)nc2c1ncn2[C@@H]1O[C@H](COS(=O)(=O)NC(=O)c2ccccc2O)[C@@H](O)[C@H]1O [Compound 26, 5′-O-[N-(2-Hydroxybenzoyl)sulfamoyl]-2-phenyladenosine Triethylammonium Salt], the “ΔG^0” value [7] is reported as -17.5 kcal/mol, the ΔH [7, 10] is reported as -15.9 ± 0.6 kcal/mol and the “−TΔS” value [7, 10] is reported as -1.6 ± 1.4 kcal/mol.
With Nc1nc(-c2ccccc2-c2ccccc2)nc2c1ncn2[C@@H]1O[C@H](COS(=O)(=O)[N-]C(=O)c2ccccc2O)[C@@H](O)[C@H]1O.[Na+] [Compound 27, 2-(Biphen-2-yl)-5′-O-[N-(2-hydroxybenzoyl)sulfamoyl]adenosine Sodium Salt] the “fold loss in potency compared to 26” value ([5]; 27 compared to 26) was 174 fold.
In the case of Nc1ncnc2c1ncn2[C@@H]1O[C@H](COS(=O)(=O)NC(=O)[C@@H](N)CS)[C@@H](O)[C@H]1O [cysteyl-AMS], the Ki [8] is given as 240 nM.
In the case of NNC(=O)c1ccncc1 [isoniazid], the MIC99 [9] is listed as 0.18 µM (≈ 0.0247 µg/mL).
In the case of O=C(O)c1ccccc1O [salicylic acid], the “ΔG^0 (free energy of binding)” value [4] is listed as -7.9 kcal/mol, the “KA(Sal)” value ([4]; association constant with MbtA) is listed as 664000 M⁻¹ and the “ΔH(Sal)” value ([4]; enthalpy with MbtA) is listed as -6.77 kcal/mol. The Kd ([4]; weak ligand for ITC displacement) was 1630 ± 520 nM.
